A short description of data set [1]: pH measurement of 0.1 M aqueous solutions. Format: physicochemical. As to conditions: r.t.; for pH values compound: 0.1 M in millipore water, average of at least three measurements. The text has this:
For the pH measurements, a Seven2Go portable pH meter S2 (pH measuring-range: −2 to 20; resolution: 0.01) with an InLab Ultra Micro-ISM electrode (measuring range: pH −1 to pH 11; low temperature membrane glass type; ceramic diaphragm; reference system with Ag^+ ion trap by argenthal) as well as with an in-lab routine pH electrode (measuring range: pH 0 to pH 14; ceramic diaphragm; reference system with Ag^+ ion trap by argenthal) from Mettler-Toledo AG (Analytical, Switzerland) was used.
For sake of comparability, compounds of the same loading ratio n=2, which is 2:1 of the loaded carboxylic acid with respect to the carrier carboxylic acid, were selected for this analysis. […] The analytes were dissolved in millipore water, stirred for 5 minutes in an airtight vial to perform the pH measurements thereafter at r.t. All measurements were performed at 0.1 molar (M) concentration of the samples, which is 0.1 mol per liter (mol/L).
For sake of reliability, every result stated is the average of at least three single measurements. […] The numbers 1-73 (nr., first row) are used as an assignment for the 73 pairs, comprising the compound of invention (third row), the corresponding carrier carboxylic acid (fourth row) and the loaded carboxylic acid (fifth row), as used in the FIG. 6.

Data set [2] is described as follows: Thermal analysis (TGA/DTA). Format: physicochemical. As to the method: Thermal analysis was carried out with a Linseis STA 1600 simultaneous thermal analyzer to determine simultaneous changes of weight (TGA signal) and caloric measurable transformations (DTA signal) in a temperature range between r.t. and 300° C.
For data set [3] the following is noted: mean particle diameter.
A short description of data set [4]: Application as additive in liquid shaving soap. The text has this: The mix was stirred with hard soap pieces remaining undissolved and placed for 50 seconds at 600 W in a microwave oven. […] The mixture was placed for 80 seconds in a microwave at 600 W. Thereafter the resulting mixture was hand-blended and filled into a jar for testing and storage.
For data set [5], the system named is Enterobacteria/β-Glucoronidase-positive-Enterobacteria (E/β). The experiment in a line: Silage preservation: E/β count. The conditions noted are these: forage, 0.5 wt % topical, r.t., 31 days. As to the method: (§1) All tests were conducted under equal conditions. […] The additives were dosed at 0.5 wt % and were applied topically to the samples. […] The preservation effectiveness was established by testing for total bacteria count (TBC), yeast/fungi count and Enterobacteria/β-Glucoronidase-positive-Enterobacteria (E/β).

The test system of data set [6] is total bacteria count (TBC). As to conditions: forage, 0.5 wt % topical, r.t., 31 days. As to the method:
as §1

For the next data set, the system named is yeast/fungi. The data set can be described thus: Silage preservation: yeast/fungi count. The conditions noted are these: forage, 0.5 wt % topical, r.t., 31 days. How it is done: as §1

Results on 7 compounds are retold here after US12458581B2, “Carboxylic acid loaded salt carrier and the method for producing thereof” (priority 2021, dated 2025).

Each structure is given as a SMILES string. Where two headings read alike, the source gives them in different places. Some results are limits rather than exact numbers.

`CC(=O)O.CC(=O)O.CC(=O)[O-].CC(=O)[O-].[Ca+2]` [CaAc-HAc [2], calcium acetate with loaded acetic acid] came in with a pH values compound in data set [1] of 5.05. The “thermal stability of the carrier carboxylic acid salt” value in data set [2] (TGA/DTA between r.t. and 300° C.) was ≤ 300 °C. The “first loss of weight (TGA)” value in data set [2] (partially hydrated sample prior drying, 25-135° C.) is −7.0 wt % of total weight. The “second stage of weight-loss (TGA)” value in data set [2] (partially hydrated sample prior drying, 135-300° C.) is listed as 11.7 wt % of the total weight. The “overall loss of weight (TGA)” value in data set [2] (partially hydrated sample, between r.t. and 300° C.) was 18.74%. The dav in data set [3] is given as 221 μm; in data set [3] (listed as CaAc—HAc [2]) it was “approximately 220 μm”.
In the case of `CC(=O)O.CCC(=O)O.O=C([O-])C(O)C(O)C(=O)[O-].[Ca+2]` (stereo not shown) [CaT-HAc-HProp [1,1], calcium tartrate with loaded acetic acid and propionic acid], the pH values compound in data set [1] is 3.63. In data set [1] (0.1 M, compound made via in-situ process), the pH value was found to be 3.63. Moreover, the dav is 220 μm in data set [3] and “approximately 220 μm” in data set [3] (listed as CaT-HAc—HProp [1,1]).
`O=C([O-])CC(O)(CC(=O)[O-])C(=O)[O-].O=C([O-])CC(O)(CC(=O)[O-])C(=O)[O-].[Ca+2].[Ca+2].[Ca+2]` [calcium citrate]: in data set [4] (liquid shaving soap, additive 1 or 2 % wt), the “stability (>24 h)” value is “yes”.
Turning to `O=CO.O=CO.O=C[O-].O=C[O-].[Ca+2]` [CaFo-HFo [2], calcium formate with loaded formic acid], in data set [5], the E/β count result is reported as “dramatically reduce”. This compound gave a pH values compound in data set [1] of 5.19. Also, the TBC entry in data set [6] is on record as “dramatically reduce”. For the same compound, the yeast count entry in the data set with yeast/fungi is on record as “dramatically reduce”.
As for `O=C(O)CC(O)C(=O)O` (stereo not shown) [malic acid], in data set [4], the “stability (>24 h)” value is “no”.
The compound `CC(O)C(=O)O.CC(O)C(=O)O.O=C([O-])c1ccccc1O.O=C([O-])c1ccccc1O.[Ca+2]` [CaSal-HLac [2], calcium salicylate with loaded lactic acid] displayed a pH values compound in data set [1] of 3.43. Besides, in data set [4], the “stability (>24 h)” value is “yes”.
For the compound `CCC(=O)O.CCC(=O)O.O=C[O-].O=C[O-].[Ca+2]` [CaFo-HProp [2], calcium formate with loaded propionic acid], in data set [5], the E/β count entry is “dramatically reduce” and the “growth of β-Glucoronidase-positive-Enterobacteria (especially E. coli)” value is recorded as “completely inhibit”. In data set [1], this compound came in with a pH values compound of 5.79. In addition, the TBC entry in data set [6] is reported as “dramatically reduce”. In addition, in the data set on yeast/fungi, the growth of yeasts result is recorded as “completely inhibit” and the yeast count entry is reported as “dramatically reduce”.
